Source: US20100130569A1, “PROPHYLACTIC OR THERAPEUTIC AGENT FOR POSTERIOR OCULAR DISEASE COMPRISING NON-ERGOT SELECTIVE D2 RECEPTOR AGONIST AS ACTIVE INGREDIENT” (SATEN PHARMACEUTICAL CO., LTD., priority 2007, published 2010)
Structures can show the parent of a compound that is named as a salt. Where two headings read alike, the source gives them in different places.

Key:
[1] = test system: laser-induced choroidal neovascularization; test: rat models of krypton laser-induced choroidal neovascularization; type: in vivo; conditions: for inhibitory effect on neovascularization in the choroid (in words): rat models of laser-induced choroidal neovascularization, summary of Table 1; for Suppression rate (%) (inhibition rate of choroidal neovascularization incidence): rat, day 7 after photocoagulation, vs vehicle
Description: The photocoagulation was performed in a posterior fundus at eight spots per eye sparsely by focusing on the retinal deep layer avoiding thick retinal blood vessels (coagulation conditions: spot size: 100 μm, output: 100 mW, coagulation time: 0.1 sec). After the photocoagulation, the ocular fundus was photographed, and the site where the laser was irradiated was confirmed.
Each of the solutions of Compound A at such concentrations was orally administered once daily at a dose of 0.3 mg/kg or 1 mg/kg starting from the day of photocoagulation surgery for 7 days including the day of surgery. […] Each of the solutions of Compound B at such concentrations was orally administered once daily at a dose of 0.3 mg/kg or 1 mg/kg starting from the day of photocoagulation surgery for 7 days including the day of surgery. On the other hand, Compound C was dissolved in PBS (phosphate buffer) at a concentration of 100 mg/ml, and the resulting solution of Compound C was intraperitoneally administered once daily at a dose of 100 mg/kg starting from the day of photocoagulation surgery for […] the day of surgery.
In the fluorescence fundus photography, a spot where fluorescence leakage was not observed (absence of neovascularization) was judged as negative, and a spot where fluorescence leakage was observed was judged as positive (presence of neovascularization). When there are two photocoagulation sites where a little fluorescence leakage was observed, they were judged as positive (presence of neovascularization). […] The case number in each administration group is 7 to 8.
Choroidal neovascularization incidence rate (%)=(Number of positive spots/total number of photocoagulation sites)×100 [Equation 1]
Inhibition rate (%)=(A0−Ax)/A0×100 [Equation 2]
A0: Choroidal neovascularization incidence rate of vehicle administration group Ax: Choroidal neovascularization incidence rate of drug administration group

[2] = test system: photoreceptor cell damage caused by light exposure; conditions: for suppressive effect on photoreceptor cell damage (in words): mouse models of light damage, summary of Table 2; for Suppression rate (%) based on a-wave / Suppression rate (%) based on b-wave: mouse, one hour before light exposure, ERG one day after
Description: After a 0.5% (w/v) tropicamide-0.5% phenylephrine hydrochloride ophthalmic solution was instilled into the eyes of a mouse to cause mydriasis, light damage was induced in the mouse by light exposure (exposure conditions: illuminance level: 5000 Lux, exposure time: 2 hours) with an apparatus for inducing light damage (Sakami Medical Instrument).
Compound A was dissolved in a 1% (w/v) methyl cellulose solution (prepared by dissolving methyl cellulose in purified water) at a concentration of 0.006, 0.02, 0.06 or 0.2 mg/ml, whereby solutions of Compound A were prepared. Each of the solutions of Compound A was orally administered once at a dose of 0.03, 0.1, 0.3 or 1 mg/kg one hour before light exposure. Compound B was also orally administered in the same manner. That is, Compound B was dissolved in a 1% (w/v) methyl cellulose solution at a concentration of 0.02 or 0.2 mg/ml, whereby solutions of Compound B were prepared. Each of the solutions of Compound B was orally administered once at a dose of 0.1 or 1 mg/kg one hour before light exposure. In a vehicle administration group, a 1% (w/v) methyl cellulose solution was administered in the same manner.
One day after light exposure, each mouse was given general anesthesia by intramuscular administration of 2 ml/kg of a mixed solution of a 5% (w/v) ketamine hydrochloride injectable solution, a 2% xylazine hydrochloride injectable solution and physiological saline (7:1:8), and a 0.5% (w/v) tropicamide-0.5% phenylephrine hydrochloride ophthalmic solution was instilled into the eyes to cause mydriasis. Then, the electroretinogram (ERG) was measured using portable ERG & VEP LE-3000 (Tomey Corporation) (measurement conditions: stimulus luminance: 3000 cd/m^2, stimulus duration: 10 msec, background light luminance: 0 cd/m^2), and a- and b-wave amplitudes were calculated from the obtained waveforms. Then, the suppression rate (%) of the drug to be evaluated against the decrease in a- and b-wave amplitudes (photoreceptor cell damage) caused by light exposure was calculated in accordance with Equations 3 and 4. The case number in each administration group was 6 to 8 per group, and the mean value was used for calculating the suppression rate.
Suppression rate against photoreceptor cell damage (%) based on a-wave=(AAZ−AAY)/(AAX−AAY)×100 [Equation 3]
AAX: a-wave amplitude in normal (untreated) group AAY: a-wave amplitude in group with light exposure and vehicle administration AAZ: a-wave amplitude in group with light exposure and drug administration
Suppression rate against photoreceptor cell damage (%) based on b-wave=(ABZ−ABY)/(ABX−ABY)×100 [Equation 4]
ABX: b-wave amplitude in normal (untreated) group ABY: b-wave amplitude in group with light exposure and vehicle administration ABZ: b-wave amplitude in group with light exposure and drug administration

[3] = test system: thrombin-induced retinal vascular hyperpermeability
Description: A rat was given general anesthesia by intramuscular administration of 1 ml/kg of a mixed solution of a 5% (w/v) ketamine hydrochloride injectable solution and a 2% xylazine hydrochloride injectable solution (7:1), and a 0.5% (w/v) tropicamide-0.5% phenylephrine hydrochloride ophthalmic solution was instilled into the eyes to cause mydriasis. Then, 5 μl of thrombin (600 U/mL) was injected into the vitreous body using a 33-gauge needle so as not to hurt the lens and retina. To a rat in a normal group, PBS (phosphate buffer) was injected instead of thrombin.
In a vehicle administration group, a 1% (w/v) methyl cellulose solution was administered in the same manner.
At 24 hours after intravitreal injection of thrombin, each rat was killed by exsanguination, and then, the eyeball of the rat was enucleated while avoiding contamination with blood. […] The collected vitreous body was appropriately diluted with purified water and the protein concentration was determined by the Bradford method. The thus determined protein concentration in the vitreous body was used as an index of retinal vascular permeability. Then, the suppression rate (%) of the drug to be evaluated against the retinal vascular hyperpermeability induced by thrombin was calculated in accordance with Equation 5. […]

[4] = 0.3 mg/kg orally once daily for 7 days
[5] = 1 mg/kg orally once daily for 7 days

Structure (SMILES)	inhibitory effect on neovascularization in the choroid (in words) [1]	Suppression rate (%) (inhibition rate of choroidal neovascularization incidence) [1, 4]	Suppression rate (%) (inhibition rate of choroidal neovascularization incidence) [1, 5]	suppressive effect on photoreceptor cell damage (in words) [2]	Suppression rate (%) based on a-wave ([2]; 0.03 mg/kg orally once) [%]	Suppression rate (%) based on b-wave ([2]; 0.03 mg/kg orally once) [%]	Suppression rate (%) based on a-wave ([2]; 0.1 mg/kg orally once) [%]	Suppression rate (%) based on b-wave ([2]; 0.1 mg/kg orally once) [%]	Suppression rate (%) based on a-wave ([2]; 0.3 mg/kg orally once) [%]	Suppression rate (%) based on b-wave ([2]; 0.3 mg/kg orally once) [%]	Suppression rate (%) based on a-wave ([2]; 1 mg/kg orally once) [%]	Suppression rate (%) based on b-wave ([2]; 1 mg/kg orally once) [%]	suppressive effect on retinal vascular hyperpermeability (in words) ([3]; rat models of thrombin-induced retinal vascular hyperpermeability, summary of Table 3)	Suppression rate (%) against retinal vascular permeability ([3]; rat, 1 mg/kg orally immediately before and 20 hours after intravitreal thrombin, vitreous protein at 24 hours) [%]	Suppression rate (%) (inhibition rate of choroidal neovascularization incidence) ([1]; 100 mg/kg intraperitoneally once daily)
CCCN[C@H]1CCc2nc(N)sc2C1 [Compound A, pramipexole hydrochloride]	inhibits choroidal neovascularization	60.9	60.9	significantly suppresses photoreceptor cell damage	41.4	49.2	47.3	44.1	70.0	72.1	102.0	92.1	excellent suppressive effect on retinal vascular hyperpermeability	9.9	–
CC(C)C[C@H]1C(=O)N2CCC[C@H]2[C@]2(O)O[C@](NC(=O)[C@@H]3C=C4c5cccc6[nH]c(Br)c(c56)C[C@H]4N(C)C3)(C(C)C)C(=O)N12 [Compound B, bromocriptine mesilate]	hardly or not at all observed	−2.1	4.1	hardly or not at all observed	–	–	0.2	−3.8	–	–	4.8	4.9	–	–	–
Cl.NCCc1ccc(O)c(O)c1 [Compound C, dopamine hydrochloride]	hardly or not at all observed	–	–	–	–	–	–	–	–	–	–	–	–	–	11.8
